Source: US10525159B2, “Liquid preparation for contact lenses comprising hydrolyzed hyaluronic acid derivative and cationic bactericide” (OPHTECS CORPORATION, priority 2016, dated 2020)

Tests used:
[1] = Hydrophilicity of SCL by dynamic contact angle measurement (balafilcon A); assay type: physicochemical; details: FIG. 7
Protocol: (§1) SCL having etafilcon A, senofilcon A or balafilcon A as a material was taken out from a blister pack. Moisture on SCL to be measured was wiped off twice with a paper waste cloth, and dien the contact angle was measured using a dynamic contact angle measuring apparatus (automatic contact angle meter DSA100 S manufactured by Krass Company). SCL was set on a sample stage of the dynamic contact angle measuring apparatus in such a manner that die concave surface of the SCL faced upward, and 2 μL of PBS was dropped After dropping, droplets were photographed with a camera after about 10 seconds, and the contact angle between the SCL surface and the droplet was calculated by analysis software.
(§2) Next, each SCL was immersed in a PBS solution containing 50 ppm of the hydrolyzed hyaluronic acid derivative. As a control test, each SCL was immersed in PBS. […] The cycle treatment was repeated, and fir SCL 1 day after immersion and 13 days after immersion, the contact angle was calculated in die same manner as described above.
(§3) Further, each SCL was immersed in a PBS solution containing 50 ppm of Na hyaluronate instead of die hydrolyzed hyaluronic add derivative, and die contact angle was calculated in die same manner as in the case of the hydrolyzed hyaluronic acid derivative.

[2] = Hydrophilicity of SCL by dynamic contact angle measurement (senofilcon A); assay type: physicochemical; details: FIG. 9
Protocol: as §1, §2, §3

[3] = Hydrophilicity of SCL by dynamic contact angle measurement (etafilcon A); assay type: physicochemical
Protocol: as §1
Next, each SCL was immersed in a PBS solution containing 50 ppm of the hydrolyzed hyaluronic acid derivative. As a control test, each SCL was immersed in PBS. The SCLs were immersed in the respective solutions overnight, and then subjected to cycle treatment under the condition of immersion of the SCL in PBS for 8 hours in conformity to actual wear. The cycle treatment was repeated, and fir SCL 1 day after immersion and 13 days after immersion, the contact angle was calculated in die same manner as described above.
as §3

both eyes of 15 subjects = assay: Suppression of corneal staining: SPK (superficial punctate keratitis) score in subjects; assay type: in vivo; details: 50 ppm in solution A; 15 subjects (30 eyes); conclusion from the SPK score
[4] = PBS containing 50 ppm, risk ratio of less than 5%

In the case of “hydrolyzed alkyl (C12-13) glyceryl hyaluronate [hydrolyzed hyaluronic acid derivative]”, the “contact angle as compared to SCL immersed in PBS, or PBS containing 50 ppm of Na hyaluronate” value ([1]; Mann-Whitney U test) is reported as “significantly smaller”, the “contact angle of SCL immersed for 13 days compared with 1 day” value (“contact angle … compared with 1 day” below) [1, 4] is reported as “significantly smaller” and the “contact angle as compared to SCL immersed in PBS, or PBS containing 50 ppm of Na hyaluronate” value ([2]; Mann-Whitney U test) is reported as “significantly smaller”. For the same substance, the “contact angle … compared with 1 day” value [2, 4] was “significantly smaller”, the “contact angle as compared to SCL immersed in PBS, or PBS containing 50 ppm of Na hyaluronate” value ([3]; etafilcon A SCL, PBS containing 50 ppm, Mann-Whitney U test, FIG. 5) was “significantly smaller” and the “contact angle … compared with 1 day” value ([3]; etafilcon A SCL, PBS containing 50 ppm, risk ratio of less than 5%, FIG. 5) was “significantly smaller”. For the same substance, the “contact angle as compared to Na hyaluronate” value ([3]; summary for all of the three kinds of SCL (etafilcon A, balafilcon A, senofilcon A)) was “smaller contact angle” and the “effect on occurrence of corneal staining” value (both eyes of 15 subjects) was “effect of suppressing occurrence of corneal staining”.
